Measurements: ChEMBL document CHEMBL5046255, “Design and synthesis of dual inhibitors targeting snail and histone deacetylase for the treatment of solid tumour cancer” (Eur J Med Chem, 2022)

Experiments:
[1] = tested on: CCRF-CEM; assay: Antiproliferative activity against human CCRF-CEM cells assessed as growth inhibition incubated for 72 hrs by luminescence assay; assay type: functional
[2] = tested on: HL-60; assay: Antiproliferative activity against human HL-60 cells assessed as growth inhibition incubated for 72 hrs by luminescence assay; assay type: functional
[3] = tested on: SR; assay: Antiproliferative activity against human SR cells assessed as growth inhibition incubated for 72 hrs by luminescence assay; assay type: functional
[4] = tested on: A549; assay: Antiproliferative activity against human A549 cells assessed as growth inhibition incubated for 72 hrs by luminescence assay; assay type: functional
[5] = tested on: HOP-62; assay: Antiproliferative activity against human HOP-62 cells assessed as growth inhibition incubated for 72 hrs by luminescence assay; assay type: functional
[6] = tested on: NCI-H226; assay: Antiproliferative activity against human NCI-H226 cells assessed as growth inhibition incubated for 72 hrs by luminescence assay; assay type: functional
[7] = tested on: NCI-H23; assay: Antiproliferative activity against human NCI-H23 cells assessed as growth inhibition incubated for 72 hrs by luminescence assay; assay type: functional
[8] = tested on: NCI-H322M; assay: Antiproliferative activity against human NCI-H322M cells assessed as growth inhibition incubated for 72 hrs by luminescence assay; assay type: functional
[9] = tested on: NCI-H460; assay: Antiproliferative activity against human NCI-H460 cells assessed as growth inhibition incubated for 72 hrs by luminescence assay; assay type: functional
[10] = tested on: HCC 2998; assay: Antiproliferative activity against human HCC 2998 cells assessed as growth inhibition incubated for 72 hrs by luminescence assay; assay type: functional
[11] = tested on: HCT-116; assay: Antiproliferative activity against human HCT-116 cells assessed as growth inhibition incubated for 72 hrs by luminescence assay; assay type: functional
[12] = tested on: HT-29; assay: Antiproliferative activity against human HT-29 cells assessed as growth inhibition incubated for 72 hrs by luminescence assay; assay type: functional
[13] = tested on: KM12; assay: Antiproliferative activity against human KM12 cells assessed as growth inhibition incubated for 72 hrs by luminescence assay; assay type: functional
[14] = tested on: SF-268; assay: Antiproliferative activity against human SF-268 cells assessed as growth inhibition incubated for 72 hrs by luminescence assay; assay type: functional
[15] = tested on: SNB-19; assay: Antiproliferative activity against human SNB-19 cells assessed as growth inhibition incubated for 72 hrs by luminescence assay; assay type: functional
[16] = tested on: SNB-75; assay: Antiproliferative activity against human SNB-75 cells assessed as growth inhibition incubated for 72 hrs by luminescence assay; assay type: functional
[17] = tested on: PC-3; assay: Antiproliferative activity against human PC-3 cells assessed as growth inhibition incubated for 72 hrs by luminescence assay; assay type: functional
[18] = tested on: DU-145; assay: Antiproliferative activity against human DU-145 cells assessed as growth inhibition incubated for 72 hrs by luminescence assay; assay type: functional
[19] = tested on: Malme-3M; assay: Antiproliferative activity against human Malme-3M cells assessed as growth inhibition incubated for 72 hrs by luminescence assay; assay type: functional
[20] = tested on: SK-MEL-28; assay: Antiproliferative activity against human SK-MEL-28 cells assessed as growth inhibition incubated for 72 hrs by luminescence assay; assay type: functional
[21] = tested on: UACC-257; assay: Antiproliferative activity against human UACC-257 cells assessed as growth inhibition incubated for 72 hrs by luminescence assay; assay type: functional
[22] = tested on: OVCAR-4; assay: Antiproliferative activity against human OVCAR-4 cells assessed as growth inhibition incubated for 72 hrs by luminescence assay; assay type: functional
[23] = tested on: OVCAR-8; assay: Antiproliferative activity against human OVCAR-8 cells assessed as growth inhibition incubated for 72 hrs by luminescence assay; assay type: functional
[24] = tested on: NCI/ADR-RES; assay: Antiproliferative activity against human NCI/ADR-RES cells assessed as growth inhibition incubated for 72 hrs by luminescence assay; assay type: functional
[25] = tested on: SK-OV-3; assay: Antiproliferative activity against human SK-OV-3 cells assessed as growth inhibition incubated for 72 hrs by luminescence assay; assay type: functional
[26] = tested on: MCF7; assay: Antiproliferative activity against human MCF7 cells assessed as growth inhibition incubated for 72 hrs by luminescence assay; assay type: functional
[27] = tested on: T47D; assay: Antiproliferative activity against human T47D cells assessed as growth inhibition incubated for 72 hrs by luminescence assay; assay type: functional
[28] = tested on: 786-0; assay: Antiproliferative activity against human 786-0 cells assessed as growth inhibition incubated for 72 hrs by luminescence assay; assay type: functional
[29] = tested on: A498; assay: Antiproliferative activity against human A498 cells assessed as growth inhibition incubated for 72 hrs by luminescence assay; assay type: functional
[30] = tested on: RXF 393; assay: Antiproliferative activity against human RXF 393 cells assessed as growth inhibition incubated for 72 hrs by luminescence assay; assay type: functional
[31] = target: Histone deacetylase 8 (Homo sapiens, UniProt Q9BY41); assay: Inhibition of HDAC8 (unknown origin) using p53 (379 to 382 residues) (RHKK(Ac-AMC) as fluorogenic substrate incubated for 2 hrs by fluorescence based assay
Histone deacetylase 8, sequence (Q9BY41 whole entry, the tested form may be a part): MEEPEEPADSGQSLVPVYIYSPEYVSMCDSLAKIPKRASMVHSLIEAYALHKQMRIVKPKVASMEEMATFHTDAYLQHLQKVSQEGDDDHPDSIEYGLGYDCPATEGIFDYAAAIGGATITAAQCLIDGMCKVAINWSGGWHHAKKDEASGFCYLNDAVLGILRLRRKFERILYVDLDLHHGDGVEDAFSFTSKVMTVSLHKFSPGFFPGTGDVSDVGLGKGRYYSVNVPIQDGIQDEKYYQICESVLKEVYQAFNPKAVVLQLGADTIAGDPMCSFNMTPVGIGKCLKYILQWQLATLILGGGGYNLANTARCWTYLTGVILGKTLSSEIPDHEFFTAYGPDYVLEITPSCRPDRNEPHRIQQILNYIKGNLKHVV

[32] = target: Histone deacetylase 11 (Homo sapiens, UniProt Q96DB2); assay: Inhibition of HDAC11 (unknown origin) using Boc-Lys(TFA)-AMC as fluorogenic substrate incubated for 30 mins by fluorescence based assay
Histone deacetylase 11, sequence (Q96DB2 whole entry): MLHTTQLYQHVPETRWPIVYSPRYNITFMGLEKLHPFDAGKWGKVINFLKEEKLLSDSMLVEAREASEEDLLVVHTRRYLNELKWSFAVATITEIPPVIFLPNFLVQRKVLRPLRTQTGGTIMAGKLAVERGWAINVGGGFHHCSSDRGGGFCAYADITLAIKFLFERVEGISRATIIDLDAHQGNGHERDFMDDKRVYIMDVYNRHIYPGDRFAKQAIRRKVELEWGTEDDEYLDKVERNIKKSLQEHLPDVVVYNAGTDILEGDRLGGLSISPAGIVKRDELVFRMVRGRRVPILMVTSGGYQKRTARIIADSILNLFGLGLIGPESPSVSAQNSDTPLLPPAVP

[33] = Metabolic stability in human liver microsomes assessed as half life incubated for 10 mins by LC-MS/MS analysis; assay type: ADME, Microsome
[34] = Metabolic stability in rat liver microsomes assessed as half life incubated for 10 mins by LC-MS/MS analysis; assay type: ADME, Microsome
[35] = Metabolic stability in monkey liver microsomes assessed as intrinsic clearance incubated for 10 mins by LC-MS/MS analysis; assay type: ADME, Macaca mulatta, Microsome; conditions: rhesus monkey, read-out: CLH
[36] = Metabolic stability in dog liver microsomes assessed as intrinsic clearance incubated for 10 mins by LC-MS/MS analysis; assay type: ADME, Canis lupus familiaris, Microsome; conditions: read-out: CLH
[37] = Metabolic stability in monkey plasma assessed as half life at 100 uM measured upto 120 mins by LC-MS/MS analysis; assay type: ADME, cell-free, Macaca mulatta; conditions: rhesus monkey
[38] = Metabolic stability in rat plasma assessed as half life at 100 uM measured upto 120 mins by LC-MS/MS analysis; assay type: ADME, cell-free
[39] = Metabolic stability in monkey plasma assessed as parent compound remaining at 100 uM measured after 2 hrs by LC-MS/MS analysis; assay type: ADME, cell-free, Macaca mulatta; conditions: rhesus monkey, read-out: Stability
[40] = Metabolic stability in rat plasma assessed as parent compound remaining at 100 uM measured after 2 hrs by LC-MS/MS analysis; assay type: ADME, cell-free; conditions: read-out: Stability
[41] = Cmax in Sprague-Dawley rat at 1 mg/kg, iv measured up to 24 hrs by LC-MS/MS analysis; assay type: ADME, organism-based; parameters: route intravenous, dose 1 mg/kg, time <=24; conditions: in vivo
[42] = Cmax in Sprague-Dawley rat at 10 mg/kg, po measured up to 24 hrs by LC-MS/MS analysis; assay type: ADME, organism-based; parameters: route oral, dose 10 mg/kg, time <=24; conditions: in vivo
[43] = Volume of distribution at steady state in Sprague-Dawley rat at 1 mg/kg, iv measured up to 24 hrs by LC-MS/MS analysis; assay type: ADME, organism-based; conditions: in vivo, read-out: Vdss
[44] = AUC (0 to t) in Sprague-Dawley rat at 10 mg/kg, po measured up to 24 hrs by LC-MS/MS analysis; assay type: ADME, organism-based; parameters: route oral, dose 10 mg/kg, time <=24; conditions: in vivo
[45] = Half life in Sprague-Dawley rat at 1 mg/kg, iv measured up to 24 hrs by LC-MS/MS analysis; assay type: ADME, organism-based; conditions: in vivo
[46] = Oral bioavailability in Sprague-Dawley rat at 10 mg/kg measured up to 24 hrs by LC-MS/MS analysis; assay type: ADME, organism-based; conditions: in vivo

GI50 [1]: 411 nM
GI50 [2]: 268 nM
GI50 [4]: 886 nM
GI50 [6]: 2700 nM
GI50 [7]: 603 nM
GI50 [8]: 1010 nM
GI50 [9]: 395 nM
GI50 [10]: 677 nM
GI50 [11]: 494 nM
GI50 [12]: 322 nM
GI50 [17]: 355 nM
GI50 [18]: 461 nM
GI50 [20]: 2830 nM
GI50 [22]: 1660 nM
GI50 [23]: 483 nM
GI50 [25]: 339 nM
GI50 [26]: 51.8 nM
GI50 [27]: 1120 nM
GI50 [28]: 466 nM
IC50 [31]: > 10000 nM
IC50 [32]: > 10000 nM
half-life [33]: 1.1 h
half-life [34]: 0.21 h
microsomal CLint [35]: 50.3 µL/min/mg
microsomal CLint [36]: 26.6 µL/min/mg
half-life at 100 µM [37]: 5.5 h
half-life at 100 µM [38]: 8.58 h
remaining at 2 h, 100 µM [39]: 82.4%
remaining at 2 h, 100 µM [40]: 105%
Cmax [41]: 144 ng/mL
Cmax [42]: 6.61 ng/mL
Vd [43]: 1.06 L/kg
AUCt [44]: 52.1 ng·h/mL
t1/2 [45]: 0.303 h
F [46]: 7.3%
SMILES: Cc1cc(Nc2nc(SCc3ccc(C(=O)Nc4ccc(F)cc4N)cc3)nn3cccc23)n[nH]1
GI50 [3]: 68 nM
GI50 [5]: 556 nM
GI50 [13]: 284 nM
GI50 [14]: 1120 nM
GI50 [15]: 536 nM
GI50 [16]: 198 nM
GI50 [19]: 1830 nM
GI50 [21]: 3690 nM
GI50 [24]: 1980 nM
GI50 [29]: 623 nM
GI50 [30]: 301 nM
